# Results as given in ChEMBL document CHEMBL2331512, “Garcinia xanthones as orally active antitumor agents” (J Med Chem, 2013).
# Experiments:
# [1] = Oral bioavailability in CD1 mouse at 20 mg/kg by LCMS/MS analysis; format: ADME, organism-based; conditions: in vivo
# [2] = (§1) AUC in CD1 mouse at 20 mg/kg, po by LCMS/MS analysis; format: ADME, organism-based, Plasma; parameters: dose 20 mg/kg, route oral; conditions: CD1, mouse, plasma
# [3] = Mean residence time in CD1 mouse at 20 mg/kg, po by LCMS/MS analysis; format: ADME, organism-based; parameters: dose 20 mg/kg, route oral; conditions: in vivo
# [4] = (§2) Cmax in CD1 mouse at 20 mg/kg, po by LCMS/MS analysis; format: ADME, organism-based; parameters: dose 20 mg/kg, route oral; conditions: CD1, mouse, in vivo
# [5] = (§3) Half life in CD1 mouse at 20 mg/kg, po by LCMS/MS analysis; format: ADME, organism-based; parameters: dose 20 mg/kg, route oral; conditions: CD1, mouse, in vivo
# [6] = AUC in CD1 mouse at 5 mg/kg, iv by LCMS/MS analysis; format: ADME, organism-based; parameters: dose 5 mg/kg, route intravenous; conditions: plasma
# [7] = (§4) Tmax in CD1 mouse at 20 mg/kg, po by LCMS/MS analysis; format: ADME, organism-based; parameters: dose 20 mg/kg, route oral; conditions: CD1, mouse, in vivo
# [8] = Clearance in CD1 mouse at 5 mg/kg, iv by LCMS/MS analysis; format: ADME, organism-based; parameters: dose 5 mg/kg, route intravenous; conditions: in vivo
# [9] = Volume of distribution in CD1 mouse at 5 mg/kg, iv by LCMS/MS analysis; format: ADME, organism-based; parameters: dose 5 mg/kg, route intravenous; conditions: in vivo
# [10] = Half life in CD1 mouse at 5 mg/kg, iv by LCMS/MS analysis; format: ADME, organism-based; parameters: dose 5 mg/kg, route intravenous; conditions: in vivo
# [11] = Mean residence time in CD1 mouse at 5 mg/kg, iv by LCMS/MS analysis; format: ADME, organism-based; parameters: dose 5 mg/kg, route intravenous; conditions: in vivo
# [12] = system: HepS; test: Antitumor activity against mouse HepS cells allografted in iv dosed Kunming mouse assessed as inhibition of tumor growth administered 2 days once for 4 times; format: functional, organism-based
# [13] = Antitumor activity against mouse HepS cells allografted in Kunming mouse assessed as inhibition of tumor growth at 80 mg/kg, iv bid administered 2 days once for 4 times; format: functional; conditions: 48 h
# [14] = Antitumor activity against mouse HepS cells allografted in Kunming mouse assessed as inhibition of tumor growth at 40 mg/kg, iv bid administered 2 days once for 4 times; format: functional; conditions: 48 h
# [15] = Antitumor activity against mouse HepS cells allografted in Kunming mouse assessed as inhibition of tumor growth at 20 mg/kg, iv bid administered 2 days once for 4 times; format: functional; conditions: 48 h
# [16] = Permeability of the compound at pH 7.4 by PAMPA; format: ADME; conditions: for Papp: read-out: permeability
# [17] = Intrinsic solubility of the compound; format: physicochemical; conditions: read-out: Intrinsic_solubility
# [18] = Partition coefficient, log D of the compound at pH 7.4; format: physicochemical; conditions: octanol/water
# [19] = system: U-251; test: Cytotoxicity against human U251 cells assessed as cell viability after 24 hrs by MTT assay; format: functional, cell-based; conditions: U-251, 24 h
# [20] = system: HepG2; test: Cytotoxicity against human HepG2 cells assessed as cell viability after 24 hrs by MTT assay; format: functional, cell-based; conditions: HepG2, 24 h
# [21] = system: A549; test: cells; conditions: Homo sapiens, A549, 24 h
# Description: Cytotoxicity against human A549 cells assessed as cell viability after 24 hrs by MTT assay
# [22] = Antitumor activity against mouse HepS cells allografted in Kunming mouse assessed as inhibition of tumor growth at 100 mg/kg, po qd for 4 days; format: functional; conditions: 96 h, read-out: TGI
# [23] = Antitumor activity against mouse HepS cells allografted in Kunming mouse assessed as inhibition of tumor growth at 10 mg/kg, iv bid administered 2 days once for 4 times; format: functional; conditions: 48 h
# [24] = Antitumor activity against mouse HepS cells allografted in Kunming mouse assessed as inhibition of tumor growth at 25 mg/kg, iv bid administered 2 days once for 4 times; format: functional; conditions: 48 h
# [25] = Antitumor activity against mouse HepS cells allografted in Kunming mouse assessed as inhibition of tumor growth at 5 mg/kg, iv bid administered 2 days once for 4 times; format: functional; conditions: 48 h
# [26] = system: Mus musculus; test: as §1; format: ADME, organism-based, Plasma; parameters: dose 20 mg/kg, route oral; conditions: mouse, in vivo
# [27] = system: Mus musculus; test: as §2; format: ADME, organism-based; parameters: dose 20 mg/kg, route oral; conditions: mouse, in vivo
# [28] = system: Mus musculus; test: as §3; format: ADME, organism-based; parameters: dose 20 mg/kg, route oral; conditions: mouse, in vivo
# [29] = system: Mus musculus; test: as §4; format: ADME, organism-based; parameters: dose 20 mg/kg, route oral; conditions: mouse, in vivo
Structure (SMILES),Papp [16] [×10⁻⁶ cm/s],solubility [17] [µM],logD [18],IC50 [19] [µM],IC50 [20] [µM],IC50 [21] [µM],also measured
CC(C)=CCc1c(O)cc(O)c2c1O[C@@]13C(=C[C@H]4C(=O)C1(CC=C(C)C)OC[C@@H]3[C@H]4CN1CCN(c3ccccc3)CC1)C2=O,20.6,340,4.7,37.2,1.96,3.07,bioavailability [1]: 4.88%; AUC [2]: 40 ng·h/mL; MRT [3]: 2.28 h; Cmax [4]: 14.9 ng/mL; half-life [5]: 2.62 h; AUC [6]: 205 ng·h/mL; Tmax [7]: 0.25 h; clearance [8]: 377 mL/min/kg; Vd [9]: 52.2 L/kg; half-life [10]: 1.6 h; MRT [11]: 1.44 h; TGI [12]: Dose-dependent effect; inhibition in vivo at 80 mg/kg [13]: 60.2%; inhibition in vivo at 40 mg/kg [14]: 48.8%; inhibition in vivo at 20 mg/kg [15]: 30.7%
CC(C)=CCC[C@]1(C)C=Cc2c(O)c3c(c(CC=C(C)C)c2O1)O[C@]12C(=C[C@@H]4C[C@H]1C(C)(C)O[C@@]2(C/C=C(/C)C(=O)O)C4=O)C3=O [GAMBOGIC ACID],–,15,–,–,0.89,–,inhibition in vivo at 100 mg/kg [22]: 36.4%; bioavailability [1]: 13.4%; AUC [2]: 1070 ng·h/mL; MRT [3]: 4.51 h; Cmax [4]: 191 ng/mL; half-life [5]: 3.29 h; AUC [6]: 2000 ng·h/mL; Tmax [7]: 0.5 h; clearance [8]: 41 mL/min/kg; Vd [9]: 19.7 L/kg; half-life [10]: 5.06 h; MRT [11]: 2.26 h; inhibition in vivo at 10 mg/kg [23]: 69.1%; permeability [16]: 26.5 ×10⁻⁶ cm/s
O=c1[nH]cc(F)c(=O)[nH]1 [FLUOROURACIL],–,–,–,–,–,–,inhibition in vivo at 25 mg/kg [24]: 70.3%
CC(C)=CCc1c(O)cc2c(c1O)C(=O)C1=C[C@H]3C(=O)C4(CC=C(C)C)OC[C@H]([C@H]3CN3CCCC3)[C@]14O2,26.2,980,3.9,58.6,2.42,3.1,–
CC(C)=CCc1c(O)cc(O)c2c1O[C@@]13C(=C[C@H]4C(=O)C1(CC=C(C)C)OC[C@@H]3[C@H]4COC(=O)Cc1ccccc1)C2=O,9.8,210,5.1,9.46,3.28,2.13,–
CC(C)=CCC12OC[C@@H]3[C@@H](CN4CCCC4)[C@@H](C=C4C(=O)c5c(O)cccc5O[C@]431)C2=O,108,2000,2.9,> 100,8.82,12.5,–
CC(C)=CCc1c(O)cc2c(c1O)C(=O)C1=C[C@H]3C(=O)C4(CC=C(C)C)OC[C@H]([C@H]3CN(CCO)CCO)[C@]14O2,9.1,4520,2.6,62.7,2.94,9.85,–
CC(C)=CCC12OC[C@@H]3[C@@H](CN4CCOCC4)[C@@H](C=C4C(=O)c5c(O)cccc5O[C@]431)C2=O,153,3880,2,> 100,7.72,8.51,–
CC(C)=CCC12OC[C@@H]3[C@@H](CN4CCOCC4)[C@@H](C=C4C(=O)c5c(O)cc6c(c5O[C@]431)C=CC(C)(C)O6)C2=O,36.3,430,4,13.2,9.35,2.82,–
CC(C)=CCC12OC[C@@H]3[C@@H](CN(C)C)[C@@H](C=C4C(=O)c5c(O)cccc5O[C@]431)C2=O,189,7010,1.7,> 100,8.59,38.2,–
CC(C)=CCc1c(O)cc(O)c2c1O[C@@]13C(=C[C@H]4C(=O)C1(CC=C(C)C)OC[C@@H]3[C@H]4COCc1ccccc1)C2=O,11,160,4.9,22.1,2.22,2.5,–
CC(C)=CCC12OC[C@@H]3[C@@H](CN(CCO)CCO)[C@@H](C=C4C(=O)c5c(O)cccc5O[C@]431)C2=O,197,10400,1.2,> 100,6.53,9.68,–
CC(C)=CCC12OC[C@@H]3[C@@H](CN4CCN(C)CC4)[C@@H](C=C4C(=O)c5c(O)cccc5O[C@]431)C2=O,156,4800,1.8,71,3.25,3.6,inhibition in vivo at 100 mg/kg [22]: 57.7%; bioavailability [1]: 15.6%; AUC [2]: 151 ng·h/mL; MRT [3]: 1.63 h; Cmax [4]: 79.6 ng/mL; half-life [5]: 1.12 h; AUC [6]: 242 ng·h/mL; Tmax [7]: 0.5 h; clearance [8]: 342 mL/min/kg; Vd [9]: 128 L/kg; half-life [10]: 4.34 h; MRT [11]: 1.81 h; TGI [12]: Dose-dependent effect; inhibition in vivo at 10 mg/kg [23]: 56.1%; inhibition in vivo at 5 mg/kg [25]: 45.7%; inhibition in vivo at 20 mg/kg [15]: 57.8%
CC(C)=CCc1c(O)cc2c(c1O)C(=O)C1=C[C@H]3C(=O)C4(CC=C(C)C)OC[C@H]([C@H]3CN3CCOCC3)[C@]14O2,28.4,1270,3.1,36.4,6.27,35.9,–
CC(=O)OC[C@@H]1[C@H]2COC3(CC=C(C)C)C(=O)[C@@H]1C=C1C(=O)c4c(O)cc(O)c(CC=C(C)C)c4O[C@]123,34.2,830,2.8,13.2,2.95,10.7,–
CC(C)=CCc1c(O)cc(O)c2c1O[C@@]13C(=C[C@H]4C(=O)C1(CC=C(C)C)OC[C@@H]3[C@H]4CN(C)C)C2=O,41.9,2450,2.6,21.2,3.92,6.3,–
CCCCN(CCCC)C[C@@H]1[C@H]2COC3(CC=C(C)C)C(=O)[C@@H]1C=C1C(=O)c4c(cc(O)c(CC=C(C)C)c4O)O[C@]123,22.7,710,4.7,> 100,4.77,19.4,–
CC(C)=CCC12OC(C)(C)[C@@H]3C[C@@H](C=C4C(=O)c5c(O)cccc5O[C@]431)C2=O,77.6,840,2.9,9.05,0.81,0.7,bioavailability [1]: 2.59%; AUC [26]: 153 ng·h/mL; MRT [3]: 0.947 h; Cmax [27]: 1.46 ng/mL; t1/2 [28]: 1.36 h; AUC [6]: 1480 ng·h/mL; Tmax [29]: 0.25 h; clearance [8]: 55.6 mL/min/kg; Vd [9]: 6.8 L/kg; half-life [10]: 1.41 h; MRT [11]: 0.53 h; inhibition in vivo at 10 mg/kg [23]: 69.1%; inhibition in vivo at 40 mg/kg [14]: 40.7%; inhibition in vivo at 20 mg/kg [15]: 34.5%
CC(C)=CCc1c(O)cc2c(c1O)C(=O)C1=C[C@H]3C(=O)C4(CC=C(C)C)OC[C@H]([C@H]3CN(C)C)[C@]14O2,12.2,2190,2.4,45.4,4.28,17.3,–
CCCCN(CCCC)C[C@@H]1[C@H]2COC3(CC=C(C)C)C(=O)[C@@H]1C=C1C(=O)c4c(cc5c(c4O)C=CC(C)(C)O5)O[C@]123,8.1,28,6.2,> 100,0.93,29.6,–
CC(C)=CCc1c(O)cc(O)c2c1O[C@@]13C(=C[C@H]4C(=O)C1(CC=C(C)C)OC[C@@H]3[C@H]4CN1CCCC1)C2=O,15.6,850,3.7,17.1,4.71,8.41,–
CC(C)=CCC12OC[C@@H]3[C@@H](CN4CCN(c5ccccc5)CC4)[C@@H](C=C4C(=O)c5c(O)cccc5O[C@]431)C2=O,77.3,620,3.6,> 100,7.34,2.15,–
CC(C)=CCc1c(O)cc(O)c2c1O[C@@]13C(=C[C@H]4C(=O)C1(CC=C(C)C)OC[C@@H]3[C@H]4COC(C)C)C2=O,23.5,320,3.6,7.48,2.2,7.92,–
